Results from patent US8614181B2, “Stabilized pharmaceutical peptide compositions” (Novo Nordisk A/S, priority 2003, dated 2013).

Experiment: Thioflavin T-test (ThT) of physical stability (fibril formation) of pharmaceutical formulations after storage at 37° C.
Type: physicochemical
Conditions: for Fluorescence units after storage at 37° C., T = 0 week / Fluorescence units after storage at 37° C., T = 1 month / Fluorescence units after storage at 37° C., T = 1 week: pH of pharmaceutical formulation 7.4
Description: Before freeze drying the solution or suspension of the peptide it has been adjusted to the aimed pH. After freeze drying pharmaceutical formulations were prepared according to General procedure 1 and 2.
Preservative, isotonic agent and buffer were dissolved in water and pH adjusted to 7.4. Hereafter the freeze dried peptide was dissolved while stirring slowly. The pH was adjusted to 7.4 using Sodium Hydroxide and/or Hydrochloric Acid. Finally, the formulation was filtered through a 0.22 μm filter.
(§1) Preservative, isotonic agent and buffer were dissolved in water and pH adjusted to 7.4. The peptide was dissolved in water while stirring slowly. The two solutions were mixed and pH adjusted to 7.4 using Sodium Hydroxide and/or Hydrochloric acid. Finally, the formulation was filtered through a 0.22 μm filter.
as §1, with “7.4 or lower. Compound 1” for “7.4. The peptide”, “slowly and pH is adjusted to 11.5 by the addition of Sodium Hydroxide. After approx. 5 min the” for “slowly. The”
Physical stability of the formulations is evaluated by means of the Thioflavin T-test. The physical stability of the different formulations is characterized by their tendency to form fibrils. A method to determine the presence of fibrils is the Thioflavin T-test. The histological thiazole dye Thioflavin T (ThT) is used as an indicator of amyloid fibril formation. The method is based on the fluorescent characteristics of ThT. […] The physical stability of the formulations is evaluated by the ThT-test after storage of the formulation is top filled glass cartridges for various time periods.

[1] = pH of Compound 1 before freeze drying 8.0, 3 mg/ml
[2] = pH of Compound 1 before freeze drying 9.5, 3 mg/ml
[3] = pH of Compound 1 before freeze drying 9.5, 6.25 mg/ml
[4] = pH of Compound 1 before freeze drying 11.5, 3 mg/ml
[5] = pH of Compound 1 before freeze drying 11.5, 6.25 mg/ml
[6] = pH of solution containing the drug substance 8.0, 6.25 mg/ml
[7] = pH of solution containing the drug substance 11.5, 6.25 mg/ml

Substance: Arg^34, Lys^26 (N^ε-(γ-Glu(N^α-hexadecanoyl)))GLP-1(7-37) [Compound 1]
- Physical stability (change in ThT) after 1 week and 1 months storage at 37° C. (Compound 1 adjusted to pH 8.0 before freeze drying): an increase in ThT is seen
- Physical stability (change in ThT) after 1 week and 1 months storage at 37° C. (Compound 1 adjusted to pH 9.5 before freeze drying): no increase in ThT is seen
- Physical stability (change in ThT) after 1 week and 1 months storage at 37° C. (Compound 1 adjusted to pH 11.5 before freeze drying): no increase in ThT is seen
- Fluorescence units after storage at 37° C., T = 0 week [1]: 6 fluorescence units
- Fluorescence units after storage at 37° C., T = 1 month [1]: 28 fluorescence units
- Fluorescence units after storage at 37° C., T = 1 month (pH of Compound 1 before freeze drying 8.0, 6.25 mg/ml): 37 fluorescence units
- Fluorescence units after storage at 37° C., T = 0 week [2]: 6 fluorescence units
- Fluorescence units after storage at 37° C., T = 1 month [2]: 7 fluorescence units
- Fluorescence units after storage at 37° C., T = 1 month [3]: 13 fluorescence units
- Fluorescence units after storage at 37° C., T = 1 week [3]: 13 fluorescence units
- Fluorescence units after storage at 37° C., T = 0 week [4]: 6 fluorescence units
- Fluorescence units after storage at 37° C., T = 1 month [4]: 7 fluorescence units
- Fluorescence units after storage at 37° C., T = 0 week [5]: 14 fluorescence units
- Fluorescence units after storage at 37° C., T = 1 month [5]: 14 fluorescence units
- Fluorescence units after storage at 37° C., T = 1 week [5]: 13 fluorescence units
- Fluorescence units after storage at 37° C., T = 0 week [6]: 14 fluorescence units
- Fluorescence units after storage at 37° C., T = 1 month [6]: 41 fluorescence units
- Fluorescence units after storage at 37° C., T = 1 week [6]: 20 fluorescence units
- Fluorescence units after storage at 37° C., T = 0 week [7]: 13 fluorescence units
- Fluorescence units after storage at 37° C., T = 1 month [7]: 13 fluorescence units
- Fluorescence units after storage at 37° C., T = 1 week [7]: 12 fluorescence units
- Physical stability (change in ThT) after 1 month at 37° C. (pH raised above neutral pH (>8) in the solution containing the drug substance): no increase in ThT is seen
